Measured values taken from patent publication US20190083646A1, “MUTANT SMOOTHENED AND METHODS OF USING THE SAME” (CURIS, INC., priority 2016, published 2019).

Assays:
advanced BCC = details: cited from earlier work
SMO-D473H = SMO-D473H (Homo sapiens, UniProt Q99835, D473H); details: SMO-D473H mutation from relapsed metastatic MB tumor; cited from earlier work
[1] = tested on: metastatic basal cell carcinoma (mBCC); test: Vismodegib treatment of metastatic basal cell carcinoma (mBCC) patients, overall response assessment; format: in vivo, human
Source text: Clinical responses to targeted therapies (e.g., cancer therapies) can be short-lived due to the acquisition of genetic alterations that confer drug resistance. Identification of resistance mechanisms will guide novel therapeutic strategies. Inappropriate Hh signaling is linked to several cancers, including basal cell carcinoma (BCC). Loss-of-function mutations in PTCH (˜90%) and activating mutations in SMO (˜10%) are the primary drivers in BCC. Clinical mechanisms of resistance to vismodegib (GDC-0449) were identified by assessing vismodegibsensitivity and mutation status of BCCs from patients using the FoundationOne™ next-generation sequencing (NGS) platform. FIG. 1 lists characteristics of the mBCC (metastatic basal cell carcinoma) patients treated with vismodegib.
Patient Treatment Histories
008: patient with metastatic basal cell carcinoma (mBCC). No prior surgery for BCC was reported. Prior systemic therapy for metastatic BCC included the following agent: anthracycline chemotherapy. Sites of metastases at the time of screening included soft tissue in the right hemi pelvis. Measurable lesions were identified on the skin/soft tissue next to the right OS ilium, next to the right femur and ventral surface of the OS sacrum. Non-measurable lesions were identified on the bone destruction region in OS ilium and OS sacrum. The patient received their first dose of 150 mg vismodegib Study Day 1.
001: patient with metastatic basal cell carcinoma (mBCC). Prior surgery for BCC included 6 skin neoplasm excisions. No prior topical or systemic therapy for BCC was reported. Sites of metastases at the time of screening included skin of head. Measurable lesions were identified on skin of head (lymph nodes [besides trachea and infracarinal]). The patient received their first dose of 150 mg vismodegib on Study Day 1.
002: patient with metastatic basal cell carcinoma (mBCC). Prior surgery for BCC included skin neoplasm excision. No prior topical or systemic therapy for BCC was reported. Sites of metastases at the time of screening (24 Jan. 2012) included bone. Measurable lesions were identified on lung (S 5 right side and S 10 left side), os sacrum, vertebral 9 rib, right femur, occipital, and lymph nodes (mediastenum, retrocaval). The patient received their first dose of 150 mg vismodegib on Study Day 1.
011: patient with metastatic basal cell carcinoma (mBCC). No prior surgery for BCC was reported. No prior topical or systemic therapy for BCC was reported. Sites of metastases at the time of screening included bone and lung. Measurable lesion was identified on the skin of trunk. The patient received their first dose of 150 mg vismodegib on Study Day 1.
005: patient with metastatic basal cell carcinoma (mBCC). Prior surgery for BCC included skin neoplasm excision. Prior radiation directed to head and neck (total dose: 50 Gy). No prior topical or systemic therapy for BCC was reported. Sites of metastasis at the time of screening included neck, sternum and left clavicle. Measurable lesions were identified on neck (supraclavicular region), lung (segment 10 and 3). Non-measurable lesion was identified on sternocleidomastoid muscle and bone (left clavicle and sternum). The patient received their first dose of 150 mg vismodegib on Study Day 1.

SMO-G529S = target: T1, SMO-G529S (Homo sapiens, UniProt Q99835, G529S); test: GLI-luciferase reporter assay, vismodegib dose response; format: cell-based; details: C3H10T1/2 cells transfected with SMO-G529S compared with SMO-WT; FIG. 7
T1 construct: expressed in transfected cells; host or cells: C3H10T1/2 cells (ATCC), transient transfection with GeneJuice
Procedure: Six hours later, cells from one well were trypsinized and redistributed over four wells of a 12-well plate. After 16 hours the FBS content of the culture medium was reduced to 0.5% to induce formation of primary cilia, and small molecule Hh inhibitors were added at indicated concentrations. Firefly luciferase activity was determined 24 hours later with the Dual-Glo Luciferase Assay System (Promega) and read using a Wallac EnVision plate reader (Perkin Elmer). Values were divided by renilla luciferase activities to normalize for transfection efficiency. Individual experiments were carried out in duplicate or triplicate and repeated at least once. Dose response data were fit to a 4-parameter equation in GraphPad Prism: […]

medulloblastoma = details: one patient; initial response, then no durable response and relapse of the tumor (Rudin et al., 2009); cited from earlier work

T1 sequence (Q99835 28-787 G529S): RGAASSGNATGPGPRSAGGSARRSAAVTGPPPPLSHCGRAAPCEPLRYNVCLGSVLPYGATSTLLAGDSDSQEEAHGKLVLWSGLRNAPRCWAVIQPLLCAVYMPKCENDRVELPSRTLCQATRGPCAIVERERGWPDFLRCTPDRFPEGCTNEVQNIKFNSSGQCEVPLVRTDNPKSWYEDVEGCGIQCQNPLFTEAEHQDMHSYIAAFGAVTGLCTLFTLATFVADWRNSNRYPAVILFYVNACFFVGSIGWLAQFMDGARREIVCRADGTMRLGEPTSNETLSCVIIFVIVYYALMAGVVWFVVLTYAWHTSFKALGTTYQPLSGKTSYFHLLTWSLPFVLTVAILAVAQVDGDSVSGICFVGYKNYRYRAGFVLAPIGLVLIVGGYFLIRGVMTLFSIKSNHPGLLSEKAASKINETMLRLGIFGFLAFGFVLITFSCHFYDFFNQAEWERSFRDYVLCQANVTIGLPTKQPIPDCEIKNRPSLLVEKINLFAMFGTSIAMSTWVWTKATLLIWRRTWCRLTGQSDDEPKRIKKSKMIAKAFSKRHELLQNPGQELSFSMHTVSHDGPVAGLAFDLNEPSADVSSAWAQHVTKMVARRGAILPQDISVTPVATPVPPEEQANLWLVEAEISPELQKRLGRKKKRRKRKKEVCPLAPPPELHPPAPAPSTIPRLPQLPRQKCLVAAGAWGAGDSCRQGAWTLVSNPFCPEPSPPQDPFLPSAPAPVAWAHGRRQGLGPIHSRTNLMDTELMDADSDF
Chain of SMO-D473H (Q99835 28-787 D473H): as the sequence (Q99835 28-787 G529S) above, with D446H, S502G counted along it

Compound: CS(=O)(=O)c1ccc(C(=O)Nc2ccc(Cl)c(-c3ccccn3)c2)c(Cl)c1 [vismodegib]
- clinical outcome of treated BCC patients (advanced BCC; majority of BCC patients (Sekulic et al., 2012)): clinical benefit, including both complete and partial responses
- advanced BCC patients developing resistance to vismodegib (advanced BCC; within the first year of treatment, preliminary estimate (Chang and Oro, 2012)): up to 20%
- drug binding in vitro (SMO-D473H): abrogate drug binding
- first PR on target lesions ([1]; patient 001, 150 mg vismodegib): 397 Study day
- overall response assessment revealed disease progression ([1]; patient 001, 150 mg vismodegib): 516 Study Day
- overall response assessment showed disease progression ([1]; patient 002, 150 mg vismodegib): 399 Study Day
- first PR ([1]; patient 002, 150 mg vismodegib, cycle 7): 172 Study day
- overall response assessment showed progressive disease ([1]; patient 005, 150 mg vismodegib): 336 Study Day
- overall response assessment showed disease progression ([1]; patient 008, 150 mg vismodegib): 673 Study Day
- overall response assessment revealed progressive disease ([1]; patient 011, 150 mg vismodegib): 310 Study Day
- response during treatment ([1]; patient 011, 150 mg vismodegib, cycle 11, Study day 282): stable disease
- sensitivity to vismodegib (Gli-luciferase reporter activity) (SMO-G529S): reduced sensitivity
- response to treatment (medulloblastoma): dramatic response
